Reference: US20230348447A1, “OXAZOLIDINONE COMPOUNDS, LIPOSOME COMPOSITIONS COMPRISING OXAZOLIDINONE COMPOUNDS AND METHOD OF USE THEREOF” (priority 2020, published 2023)
Converted amounts (≈) assume the structure as drawn.

What was measured:
[1] = system: M. tuberculosis MDR strain M28; assay: microbe, parasite or virus in culture; assay type: cell-based, Mycobacterium tuberculosis; details: for MIC: Mycobacterium tuberculosis, read-out: MIC, µg/mL in M.tuberculosis strain M28; for MIC, µg/mL in M.tuberculosis strain M28: MABA assay
[2] = system: M. tuberculosis MDR strain TN5904; assay: microbe, parasite or virus in culture; assay type: cell-based, Mycobacterium tuberculosis; details: for MIC: Mycobacterium tuberculosis, read-out: MIC, µg/mL in M.tuberculosis strain TN5904; for MIC, µg/mL in M.tuberculosis strain TN5904: MABA assay
[3] = system: M. tuberculosis MDR strain M14; assay: microbe, parasite or virus in culture; assay type: cell-based, Mycobacterium tuberculosis; details: for MIC: Mycobacterium tuberculosis, read-out: MIC, µg/mL in M.tuberculosis strain M14; for MIC, µg/mL in M.tuberculosis strain M14: MABA assay
[4] = system: M. tuberculosis MDR strain M94; assay: microbe, parasite or virus in culture; assay type: cell-based, Mycobacterium tuberculosis; details: for MIC: Mycobacterium tuberculosis, read-out: MIC, µg/mL in M.tuberculosis strain M94; for MIC, µg/mL in M.tuberculosis strain M94: MABA assay
[5] = system: M. tuberculosis MDR strain M70; assay: microbe, parasite or virus in culture; assay type: cell-based, Mycobacterium tuberculosis; details: for MIC: Mycobacterium tuberculosis, read-out: MIC, µg/mL in M.tuberculosis strain M70; for MIC, µg/mL in M.tuberculosis strain M70: MABA assay
M. tuberculosis H37Rv = assay: microbe, parasite or virus in culture; assay type: cell-based, Mycobacterium tuberculosis; details: for MIC: Mycobacterium tuberculosis, H37RV, read-out: MIC, µg/mL in M.tuberculosis strain H37Rv; for MIC, µg/mL in M.tuberculosis strain H37Rv: MABA assay, drug-susceptible strain H37Rv
[6] = system: M. tuberculosis MDR strain TN5904; design: key: R- resistant; S -susceptible; details: cited from earlier work
[7] = system: M. tuberculosis MDR strain M14; design: key: R- resistant; S -susceptible; details: cited from earlier work
[8] = system: M. tuberculosis MDR strain M94; design: key: R- resistant; S -susceptible; details: cited from earlier work
[9] = system: M. tuberculosis MDR strain M70; design: key: R- resistant; S -susceptible; details: cited from earlier work
[10] = system: M. tuberculosis MDR strain M28; design: key: R- resistant; S -susceptible; details: cited from earlier work

| Compound | MIC [1] [µg/mL] | MIC [2] [µg/mL] | MIC [3] [µg/mL] | MIC [4] [µg/mL] | MIC [5] [µg/mL] | MIC (M. tuberculosis H37Rv) [µg/mL] | MIC, µg/mL in M.tuberculosis strain M28 [1] [µg/mL] | MIC, µg/mL in M.tuberculosis strain TN5904 [2] [µg/mL] | MIC, µg/mL in M.tuberculosis strain M14 [3] [µg/mL] | MIC, µg/mL in M.tuberculosis strain M94 [4] [µg/mL] | Drug resistance feature of the strain [6] | MIC, µg/mL in M.tuberculosis strain M70 [5] [µg/mL] | MIC, µg/mL in M.tuberculosis strain H37Rv (M. tuberculosis H37Rv) [µg/mL] | Drug resistance feature of the strain [7] | Drug resistance feature of the strain [8] | Drug resistance feature of the strain [9] | Drug resistance feature of the strain [10] |
| --- | --- | --- | --- | --- | --- | --- | --- | --- | --- | --- | --- | --- | --- | --- | --- | --- | --- |
| COc1c(N2C[C@@H]3CCCN[C@@H]3C2)c(F)cc2c(=O)c(C(=O)O)cn(C3CC3)c12 [MOX] | 2 (≈ 4.98 µM) | 0.125 (≈ 0.311 µM) | 0.125 (≈ 0.311 µM) | 0.125 (≈ 0.311 µM) | 1 (≈ 2.49 µM) | 0.125 (≈ 0.311 µM) | – | – | – | – | – | – | – | – | – | – | – |
| Cl.Cl.NCCn1nnc(-c2ccc(-c3ccc(N4C[C@H](CN)OC4=O)cc3F)cn2)n1 [AKG-29] | 0.125 | 0.06 | 0.06 | 0.125 | ≤ 0.03 | 0.25 | – | – | – | – | – | – | – | – | – | – | – |
| CN(C)CCn1nnc(-c2ccc(-c3ccc(N4C[C@H](CN)OC4=O)cc3F)cn2)n1.Cl [AKG-28] | 0.015 | 0.015 | 0.015 | 0.015 | ≤ 0.004 | 0.03 | – | – | – | – | – | – | – | – | – | – | – |
| CCN(CC)CCn1nnc(-c2ccc(-c3ccc(N4C[C@H](CNC(C)=O)OC4=O)cc3F)cn2)n1 [AKG-39] | 0.5 (≈ 1.01 µM) | 0.25 (≈ 0.503 µM) | 0.5 (≈ 1.01 µM) | 1 (≈ 2.01 µM) | 0.125 (≈ 0.252 µM) | – | – | – | – | – | – | – | – | – | – | – | – |
| CN(C)CCn1nnc(-c2ccc(-c3ccc(N4C[C@H](CO)OC4=O)cc3F)cn2)n1 [AKG-16] | 0.25 (≈ 0.585 µM) | 0.06 (≈ 0.14 µM) | 0.06 (≈ 0.14 µM) | 0.06 (≈ 0.14 µM) | 0.125 (≈ 0.292 µM) | – | – | – | – | – | – | – | – | – | – | – | – |
| Cl.Cn1nnc(-c2ccc(-c3ccc(N4C[C@H](CN)OC4=O)cc3F)cn2)n1 [AKG-3] | 0.06 | 0.06 | 0.03 | 0.06 | ≤ 0.015 | 0.125 | – | – | – | – | – | – | – | – | – | – | – |
| CC(=O)NC[C@H]1CN(c2ccc(N3CCOCC3)c(F)c2)C(=O)O1 [Linezolid] | 0.5 (≈ 1.48 µM) | 1 (≈ 2.96 µM) | 0.5 (≈ 1.48 µM) | 0.5 (≈ 1.48 µM) | 0.5 (≈ 1.48 µM) | 2 (≈ 5.93 µM) | – | – | – | – | – | – | – | – | – | – | – |
| NNC(=O)c1ccncc1 [INH] | – | – | – | – | – | – | >2 | 2 (≈ 14.6 µM) | >2 | >2 | R | >2 | 0.06 (≈ 0.438 µM) | R | R | R | R |
| CC[C@@H](CO)NCCN[C@@H](CC)CO [EMB] | – | – | – | – | – | – | – | – | – | – | S | – | – | S | S | S | R |
| CC(=O)NC[C@H]1CN(c2ccc(-c3ccc(-c4nnn(CCN(C)C)n4)nc3)c(F)c2)C(=O)O1 [AKG-38] | 0.03 (≈ 0.064 µM) | 0.03 (≈ 0.064 µM) | 0.03 (≈ 0.064 µM) | 0.03 (≈ 0.064 µM) | ≤ 0.015 | 0.03 (≈ 0.064 µM) | – | – | – | – | – | – | – | – | – | – | – |
| CN[C@@H]1[C@H](O[C@H]2[C@H](O[C@H]3[C@H](O)[C@@H](O)[C@H](N=C(N)N)[C@@H](O)[C@@H]3N=C(N)N)O[C@@H](C)[C@]2(O)C=O)O[C@@H](CO)[C@H](O)[C@H]1O [STR] | – | – | – | – | – | – | 0.125 (≈ 0.215 µM) | 1 (≈ 1.72 µM) | >8 | >8 | R | 2 (≈ 3.44 µM) | 0.5 (≈ 0.86 µM) | R | R | R | S |
| NC(=O)c1cnccn1 [PZA] | – | – | – | – | – | – | – | – | – | – | R | – | – | R | S | R | R |
| CO[C@H]1/C=C/O[C@@]2(C)Oc3c(C)c(O)c4c(O)c(c(/C=N/N5CCN(C)CC5)c(O)c4c3C2=O)NC(=O)/C(C)=C\C=C\[C@H](C)[C@H](O)[C@@H](C)[C@@H](O)[C@@H](C)[C@H](OC(C)=O)[C@@H]1C [RIF] | – | – | – | – | – | – | >8 | >8 | 0.06 (≈ 0.0729 µM) | – | R | >8 | 0.06 (≈ 0.0729 µM) | S | S | R | R |
